This passage reports IC50 results from patent publication EP0171441A1, “Prostaglandin analogues, processes for their preparation and compositions containing them” (ONO PHARMACEUTICAL CO., LTD., priority 1984, dated 1986).

In brackets after ≈: the same amount, converted by molar mass.

The test system of this experiment is cells originated from human mouth tumor (KB-cells). Nature of the experiment: Test on inhibition of proliferation using cells originated from human mouth tumor (KB-cells). The experiment is classed as cell-based. The following applies: 96 h, stationary culture at 37°C for 4 days, Trypan Blue staining, surviving cell number relative to control. As to the method:
The cells originated from human mouth tumor (KB-cells) were added to Eagle's MEM culture solution containing 10% bovine fetal serum, the number of cells in the culture solution was adjusted to […] cells/ml, a solution in ethanol of the compound of the present invention was added to give a concentration of 5µg/ml or less (3 compounds) and the mixture subjected to stationary culture at 37°C for 4 days. As a control, a culture solution containing 0.1% of ethanol was similarly cultured. After the culture, the cells were
stained by the Trypan Blue staining method, and the surviving cell number was measured to determine the IC50 value from the degree of inhibition relative to the control. Compounds are identified by the Example (described hereinafter) in which they are prepared.
Consider `CCCCC[C@H](O)/C=C/[C@H]1C(=O)C=C[C@@H]1C/C=C\CCCCOC(N)=O` [Compound 1(c)], for which the IC50 (commonly the concentration that inhibits the measured activity by half) turned out to be 1.1 µg/mL (≈ 3.03 µM).
The value for `CCCCC[C@H](O)/C=C/[C@H]1C(=O)C[C@H](O)[C@@H]1C/C=C\CCCCOC(=O)C=C(C)C` [Compound 1, 1-O-(3,3-dimethylacryloyl)-PGD2 alcohol] was 2.1 µg/mL (≈ 4.99 µM); that for `CCCCCC=CC=C1C(=O)C=C[C@@H]1C/C=C\CCCCO` [Compound 2, (5Z,14EZ)-11-oxoprosta-5,9,12,14-tetraen-1-ol] was less than 1 µg/mL.
`CCCCCC=CC=C1C(=O)C=CC1CC=CCCCCOC(C)=O` (stereo not drawn) [Compound 3, (5Z,14EZ)-1-0-acetyl-11-oxoprosta-5,9,12,14-tetraen-l-ol] had an IC50 of 1.6 µg/mL (≈ 4.64 µM).
